From patent US9327008B2, “Cell-permeant peptide-based inhibitor of kinases” (Purdue Research Foundation, priority 2008, dated 2016)

Columns and labels:
[1] = biological target: T1, Flt3 (Homo sapiens, UniProt P36888); test: Millipore radiometric kinase activity assay, Flt3 (h); format: biochemical
T1 construct: purchased Millipore (assay service)
T1 sequence (P36888 27-993): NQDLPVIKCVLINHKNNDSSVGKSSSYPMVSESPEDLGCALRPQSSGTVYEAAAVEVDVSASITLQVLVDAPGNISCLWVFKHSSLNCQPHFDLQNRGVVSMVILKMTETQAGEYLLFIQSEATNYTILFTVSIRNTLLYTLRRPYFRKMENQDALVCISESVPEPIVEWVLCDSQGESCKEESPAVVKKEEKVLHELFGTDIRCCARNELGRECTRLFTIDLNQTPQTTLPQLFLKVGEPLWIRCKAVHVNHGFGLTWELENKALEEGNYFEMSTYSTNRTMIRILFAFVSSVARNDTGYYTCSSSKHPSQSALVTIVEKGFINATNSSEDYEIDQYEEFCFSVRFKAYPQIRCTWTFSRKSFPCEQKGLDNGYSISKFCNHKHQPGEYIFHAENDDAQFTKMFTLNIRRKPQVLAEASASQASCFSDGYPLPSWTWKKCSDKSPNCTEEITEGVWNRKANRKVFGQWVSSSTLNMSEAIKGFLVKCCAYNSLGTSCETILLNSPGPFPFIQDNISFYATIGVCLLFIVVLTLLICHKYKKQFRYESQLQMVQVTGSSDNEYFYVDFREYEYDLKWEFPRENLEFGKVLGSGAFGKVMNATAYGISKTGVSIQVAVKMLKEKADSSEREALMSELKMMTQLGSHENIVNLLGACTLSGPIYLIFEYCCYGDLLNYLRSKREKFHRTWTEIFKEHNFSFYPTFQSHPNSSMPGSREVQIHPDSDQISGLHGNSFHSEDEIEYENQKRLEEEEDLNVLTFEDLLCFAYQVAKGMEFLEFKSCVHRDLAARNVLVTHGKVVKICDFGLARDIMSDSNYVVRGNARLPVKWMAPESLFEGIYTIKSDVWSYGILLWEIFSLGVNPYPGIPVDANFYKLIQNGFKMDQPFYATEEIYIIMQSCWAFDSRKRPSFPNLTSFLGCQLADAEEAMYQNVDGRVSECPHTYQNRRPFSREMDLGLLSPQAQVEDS
Procedure: (§1) A commercial radiometric assay service (Millipore, Billerica, Mass.) was used to test the specificity and potency of peptides containing a coupled transduction domain and therapeutic domain, hereinafter “complete peptides”). In these assays, if the kinase is not inhibited by an inhibitor peptide, a positively charged substrate is phosphorylated with a radiolabeled phosphate group from an ATP.
In a final reaction volume of 25 μL, Flt3 (h) (5-10 mU) is incubated with 8 mM MOPS pH 7.0, 0.2 mM EDTA, 50 μM […] [SEQ ID NO: 48], 10 mM MgAcetate and [γ-^33P-ATP] (specific activity approx. 500 cpm/pmol, concentration as required). The reaction is initiated by the addition of the MgATP mix. After incubation for 40 minutes at room temperature, the reaction is stopped by the addition of 5 μL of a 3% phosphoric acid solution. 10 μL of the reaction is then spotted onto a P30 filtermat and washed three times for 5 minutes in 75 mM phosphoric acid and once in methanol prior to drying and scintillation counting.
(§2) IC50 values for inhibitor peptides were determined using Millipore's IC50Profiler Express service. The IC50 value was estimated from a 10-point curve of one-half log dilutions. For peptides tested for specificity, the concentration of the peptides that inhibited approximately 95% of MK2 activity was chosen to profile against a battery of kinases related to MK2, cell viability, or human disease from MilliporeKinaseProfiler service. In both assays, compounds were supplied in dimethylsulfoxide (DMSO). Every kinase activity measurement was conducted in duplicate.
Therapeutic inhibitor peptides were assayed for activity against human kinases related to MK2, cell viability, or human disease. The assays were performed using concentrations of therapeutic inhibitor peptides that yielded 2% to 8% of normal MK2 activity. Error is reported as the standard deviation between 2 samples, and “c” is rat AMPK whereas all other kinases used are human kinases.

[2] = tested on: IL-1β induced IL-6 expression in mesothelial cells (CRL-9444); test: IL-6 ELISA, mesothelial cells induced with IL-1β; format: cell-based; conditions: IL-1β 1 ng/ml
Procedure: A cell line of pleural mesothelial cells (CRL-9444) was purchased from American Type Culture Collection. Cells were maintained and seeded in Medium 199 with Earle's BSS and 0.75 mM L-glutamine (Mediatech, Inc., Manassas, Va.), 1.25 g/L sodium bicarbonate (Sigma, St. Louis, Mo.), 3.3 nM epidermal growth factor (MBL International, Woburn, Mass.), 40 nM hydrocortisone (Sigma), 870 nM insulin (MBL International), 20 mM HEPES (Sigma), trace elements mixture B (Mediatech, Inc.), 10% fetal bovine serum (FBS) (Hyclone, Waltham, Mass.) and 1% penicillin/streptomycin (Mediatech, Inc.). Prior to treating cells with therapeutic inhibitor peptides, cells were allowed to acclimate in serum-free media consisting of only Medium 199 with Earle's BSS. L-glutamine, sodium bicarbonate, HEPES, trace elements mixture B, and penicillin/streptomycin (concentrations and suppliers as above) for 24 hours prior to treatment with cytokines and/or inhibitor peptides. […] For all cell culture experiments, the cell-penetrating MK2 inhibitor peptide sequence [sequence] [SEQ ID NO: 11] was used.
IL-6 analysis was performed with a IL-6 ELISA kit (PeproTech, Inc., Rocky Hill, N.J.). Briefly, the plate was prepared as follows. The capture antibody (antigen-affinity purified goat anti-hIL-6+2.5 mg D-mannitol) was diluted with phosphate buffered saline (PBS) to a concentration of 1 μg/ml and added to the each well of the plate. The plate was sealed and incubated at room temperature overnight. The wells then were aspirated to remove liquid, and washed 4 times using wash buffer (300 μl per well of 0.05% Tween-20 in PBS). After the last wash, the plate was inverted to remove residual buffer, and blotted on a paper towel. Block buffer (300 μl per well of 1% BSA in PBS) was added, the plate incubated for at least 1 hour at room temperature, aspirated and washed 4 times.
Standards (from 2 ng/ml to zero) and samples were prepared in diluent, immediately added to each well in triplicate, and incubated at room temperature for at least 2 hours on a plate shaker adjusted to 300 rpm. […] Following the incubation, the plate was aspirated, washed 4 times, avidin-horse radish peroxidase (HRP) conjugate added ((5.5 μl:10994.5 μl diluent) (100 μl) to each well, incubated for 30 minutes at room temperature on a plate shaker adjusted to 300 rpm, aspirated, and washed 4 times. To each well then was added ABTS Liquid Substrate Solution (Sigma) (100 μl). The plate was incubated at room temperature for color development on a plate shaker adjusted to 300 rpm. Absorbance was measured at 405 nm and 650 nm (650 nm was the wavelength correction subtracted from each 405 nm measurement) using a Spectramax M5 Microplate Reader (Molecular Devices) every 5 minutes for 50 minutes. Hoeschst 33342 nuclear stain (Invitrogen) was used to quantify cell number on the basis of DNA quantity. All results were run in triplicate and normalized to cell number.
One-way ANOVA analyses were used to determine statistically significant increases or decreases in parameters of interest. Significant differences were analyzed with Tukey HSD post hoc comparisons. A significance level of α=0.05 was used in cytokine analyses.
Mesothelial cells were incubated with IL-1β (1 ng/ml) (to induce IL-6 expression) and/or different concentrations of therapeutic inhibitor peptide. The commercially available protein kinase inhibitor Rottlerin was introduced as an inhibitor of both MK2 and PRAK.

[3] = tested on: IL-1β expression in rat primary cortical astrocyte cultures; conditions: 1 mM or 3 mM MK2i with TNF-α 5 or 10 ng/ml; 18-22 hours
Procedure: Primary rat astrocytes were isolated from embryonic day 18 Sprague Dawley rat cortices. […] Briefly, the rat cortexes were triturated with a 1 ml pipet aid until most of the large cortex pieces were dispersed. After larger tissue fragments were allowed to settle, the supernatant was collected, in a 15 ml conical tube, and pelleted by centrifugation at 1100 rpm for 1 minute. The resulting supernatant was discarded and the pellet resuspended in neurobasal media (10% horse serum, 3 mM glutamine). The astrocytes then were seeded in the petri dishes and grown until they were confluent (80-95%) after which time they were passed. Astrocytes were passed 1:4, grown to 80-95% confluency, then rinsed twice with PBS. Different treatment types were applied to each corresponding petri dish for 18-22 hours. There was a total of 1 ml of media (neurobasal media with 10% horse serum, 3 mM glutamine) plus treatment in each petri dish. […]
After 18-22 hours, the cells were rinsed with PBS, scraped into a small centrifuge tube using a lysis buffer (8 M urea, 4% CHAPS, 10 mM DTT), and disrupted by using a Disruptor Genie™ (Scientific Industries, Bohemia, N.Y.) for 2 hours. The cells were pelleted by centrifugation at 17 krpm for 15 minutes, the supernatant (cell lysate) collected and the total protein concentration quantified (Pierce BCA Protein Assay kit, Thermo Fisher Scientific, Rockford, Ill.).

[4] = tested on: IL-6 expression in triple culture of neurons, astrocytes and microglia; conditions: 1 mM or 3 mM MK2i with TNF-α 5 or 10 ng/ml
Procedure: The inhibitory effect of therapeutic inhibitor protein having amino acid sequence [sequence] [SEQ ID NO: 11] on IL-6 production was studied in a triple culture consisting of neurons, astrocytes and microglia. […] The E18 cells were plated (1×10^6 cells/ml) to support differentiation into neurons, astrocytes and microglia. […] The positive control comprised treating the cells with TNF-α (either 5 ng/ml or 10 ng/ml); as a negative control, the cells were exposed to cell media without any treatment. […] Cytokines with or without therapeutic inhibitor peptide were always added simultaneously in this media formulation.

[5] = biological target: T2, Tie2 (Homo sapiens, UniProt Q02763); test: Millipore radiometric kinase activity assay, Tie2 (h); format: biochemical
T2 construct: purchased Millipore (radiometric assay service)
T2 sequence (Q02763 23-1124): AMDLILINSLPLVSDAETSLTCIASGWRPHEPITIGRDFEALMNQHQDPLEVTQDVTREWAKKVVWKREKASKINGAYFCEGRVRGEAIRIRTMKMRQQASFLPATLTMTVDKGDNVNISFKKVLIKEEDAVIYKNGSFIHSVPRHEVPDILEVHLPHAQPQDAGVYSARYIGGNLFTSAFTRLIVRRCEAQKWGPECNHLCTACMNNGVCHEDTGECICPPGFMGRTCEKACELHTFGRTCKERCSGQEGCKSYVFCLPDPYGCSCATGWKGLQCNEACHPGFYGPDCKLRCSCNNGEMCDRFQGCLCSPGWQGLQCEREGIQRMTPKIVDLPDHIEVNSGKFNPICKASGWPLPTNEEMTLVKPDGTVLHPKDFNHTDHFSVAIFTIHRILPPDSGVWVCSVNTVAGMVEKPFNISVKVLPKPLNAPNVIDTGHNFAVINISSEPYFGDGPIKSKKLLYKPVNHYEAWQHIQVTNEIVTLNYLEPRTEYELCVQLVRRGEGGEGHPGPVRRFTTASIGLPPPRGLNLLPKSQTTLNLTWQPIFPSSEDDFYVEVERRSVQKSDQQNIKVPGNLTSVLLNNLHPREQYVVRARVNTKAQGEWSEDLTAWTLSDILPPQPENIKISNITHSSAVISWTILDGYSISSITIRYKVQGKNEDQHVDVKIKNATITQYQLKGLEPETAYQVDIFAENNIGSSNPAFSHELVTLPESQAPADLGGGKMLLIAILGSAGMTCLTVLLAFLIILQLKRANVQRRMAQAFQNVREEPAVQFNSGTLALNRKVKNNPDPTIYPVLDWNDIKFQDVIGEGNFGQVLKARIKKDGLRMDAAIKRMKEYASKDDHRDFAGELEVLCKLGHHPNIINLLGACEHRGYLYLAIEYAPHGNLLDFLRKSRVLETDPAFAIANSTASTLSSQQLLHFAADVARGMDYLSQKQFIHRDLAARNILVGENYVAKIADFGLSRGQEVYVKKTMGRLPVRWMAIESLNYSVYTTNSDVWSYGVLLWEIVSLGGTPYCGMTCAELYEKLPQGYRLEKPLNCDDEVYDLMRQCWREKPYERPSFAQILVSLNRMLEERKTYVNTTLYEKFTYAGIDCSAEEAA
Procedure: as §1
In a final reaction volume of 25 μL, Tie2 (h) (5-10 mU) is incubated with 8 mM MOPS pH 7.0, 0.2 mM EDTA, 0.5 mM MnCl2, 0.1 mg/mL poly(Glu, Tyr) 4:1, 10 mM MgAcetate and [γ-^33P-ATP] (specific activity approx. 500 cpm/pmol, concentration as required). The reaction is initiated by the addition of the MgATP mix. After incubation for 40 minutes at room temperature, the reaction is stopped by the addition of 5 μL of a 3% phosphoric acid solution. 10 μL of the reaction is then spotted onto a Filtermat A and washed three times for 5 minutes in 75 mM phosphoric acid and once in methanol prior to drying and scintillation counting.
IC50 values for inhibitor peptides were determined using Millipore's IC50Profiler Express service. The IC50 value was estimated from a 10-point curve of one-half log dilutions. […]

[6] = tested on: 10 Human Kinases; test: Specificity of complete inhibitor peptide variants on 10 human kinases; format: biochemical; conditions: Table 5
Procedure: as §1, §2
Additional therapeutic inhibitor peptide variants were assayed for activity against several human kinases representative of several families of kinases. […]

Sequence	Flt3 Kinase Activity (%) (+SD %) ([1]; peptide 100 μM)	IL-1β induced IL-6 expression (FIG. 7) ([2]; different concentrations of peptide)	time at which significant reduction of IL-1β induced IL-6 expression occurs ([2]; peptide 3 mM) [h]	IL-1β induced IL-6 expression (FIG. 7) ([2]; peptide 3 mM (highest concentration))	level of expression of IL-1β (FIG. 10) [3]	level of expression of IL-6 (FIG. 11) [4]	Flt3 Kinase Activity (%) (+SD %) ([1]; peptide 30 μM)	Tie2 Kinase Activity (%) (+SD %) ([5]; peptide 30 μM)	Tie2 Kinase Activity (%) (+SD %) ([5]; peptide 100 μM)	specificity among therapeutic inhibitor peptides (in words) [6]
KAFAKLAARLYRKALARQLGVAA	20 (3) %									
YARAAARQARAKALARQLGVAA		inhibited	6	significantly reduced	able to inhibit	reduced levels of expression of IL-6				
WLRRIKAWLRRIKALNRQLGVAA	14 (0) %						38 (1) %	17 (1) %	0 (0) %	least specificity
